Reference: US20250127169A1, “PLANTS HAVING INCREASED TOLERANCE TO HERBICIDES” (BASF Agricultural Solutions Seed US LLC, priority 2021, published 2025)
Where “and” joins values, the source holds several entries; their conditions need not be identical. Equal values may be shown once.

Assays:
[1] = target: PPO2 AMATU L397Q, F420M (variant based on SEQ ID NO: 1) (Amaranthus tuberculatus, UniProt Q0NZW9, F420M/L397Q); assay: biochemical
[2] = target: PPO2 AMATU L397E, F420V (variant based on SEQ ID NO: 1) (Amaranthus tuberculatus, UniProt Q0NZW9, F420V/L397E); assay: biochemical

SMILES | IC50 [1] | IC50 [2]
COC(Oc1ccccc1Oc1cc(-n2c(=O)cc(C(F)(F)F)n(C)c2=O)c(F)cc1Br)C(=O)O (stereo not drawn) [phenyluracil 3, 2-[2-[2-bromo-4-fluoro-5-[3-methyl-2,6-dioxo-4-(trifluoromethyl)pyrimidin-1-yl]phenoxy]phenoxy]-2-methoxy-acetic acid] | 143 nM | 2810 nM
CCOC(=O)C(OC)Oc1ccccc1Oc1cc(-n2c(=O)cc(C(F)(F)F)n(C)c2=O)c(F)cc1Br (stereo not drawn) [phenyluracil 2, ethyl 2-[2-[2-bromo-4-fluoro-5-[3-methyl-2,6-dioxo-4-(trifluoromethyl)pyrimidin-1-yl]phenoxy]phenoxy]-2-methoxy-acetate] | 159 nM | 6790 nM
COC(=O)C(OC)Oc1ccccc1Oc1cc(-n2c(=O)cc(C(F)(F)F)n(C)c2=O)c(F)cc1Br (stereo not drawn) [phenyluracil 1, methyl 2-[2-[2-bromo-4-fluoro-5-[3-methyl-2,6-dioxo-4-(trifluoromethyl)pyrimidin-1-yl]phenoxy]phenoxy]-2-methoxy-acetate] | 357 nM and 354 nM | 5790 nM and 5450 nM
